According to paper doi:10.1101/2023.07.20.549922v1 (biorxiv, 2023):

T1: AmGSTD1 (Apis mellifera, UniProt A0A8U0Y9D4)
T1 sequence (A0A8U0Y9D4 1-240): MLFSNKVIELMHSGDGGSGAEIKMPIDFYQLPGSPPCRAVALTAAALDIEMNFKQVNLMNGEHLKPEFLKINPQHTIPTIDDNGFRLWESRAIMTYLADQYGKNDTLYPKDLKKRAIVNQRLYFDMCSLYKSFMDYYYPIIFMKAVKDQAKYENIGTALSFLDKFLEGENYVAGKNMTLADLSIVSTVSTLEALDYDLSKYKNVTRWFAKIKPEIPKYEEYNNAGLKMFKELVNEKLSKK


What was measured:
AmGSTD1 [1] = molecular target: T1, AmGSTD1; assay: ANS displacement fluorescence, Ki from IC50; assay type: binding
AmGSTD1 [2] = molecular target: T1, AmGSTD1; assay: absorbance initial rates, Michaelis-Menten; settings: 4 mM GSH; 100 mM KPi pH 6.5; 30 °C
AmGSTD1 [3] = molecular target: T1, AmGSTD1; assay: ANS displacement fluorescence; assay type: binding
AmGSTD1 [4] = molecular target: T1, AmGSTD1; assay: fluorescence saturation binding
purified protein [5] = substrate: CC(=O)Oc1ccc([N+](=O)[O-])cc1; assay: purified protein; settings: 4 mM GSH, 100 mM KPi pH 6.5, 30 °C
purified protein [6] = substrate: S=C=NCCc1ccccc1; assay: purified protein; settings: 4 mM GSH, 100 mM KPi pH 6.5, 30 °C
purified protein [7] = substrate: CCCCCC(O)/C=C/C=O; assay: purified protein; settings: 0.5 mM GSH, 100 mM KPi pH 6.5, 30 °C

Row | Molecule | Ki (AmGSTD1 [1]) [µM] | IC50 (AmGSTD1 [3]) [µM] | further results
1 | O=[N+]([O-])NC1=NCCN1Cc1ccc(Cl)nc1 [imidacloprid] | 130 | – | –
2 | CCCN=C=S [PITC] | – | – | Km (AmGSTD1 [2]): 1100 ± 140 µM
3 | C=C(CC)C(=O)c1ccc(OCC(=O)O)c(Cl)c1Cl [ethacrynic acid] | 41.5 | 1020 ± 40 | –
4 | O=C(O)COc1ccc(Cl)cc1Cl [2,4-D] | 41.4 | 1010 ± 56 | –
5 | Oc1nc(Cl)c(Cl)cc1Cl [TCP] | 25 | 613 ± 27 | –
6 | O=S(=O)(O)c1cccc2cccc(Nc3ccccc3)c12 [ANS] | – | – | Kd (AmGSTD1 [4]): 2.09 ± 0.102 µM
7 | O=[N+]([O-])c1ccc(Cl)c([N+](=O)[O-])c1 [CDNB] | 49.6 | 1220 ± 55 | Km (AmGSTD1 [2]): 525 ± 70 µM
8 | O=Cc1cccc(Oc2ccccc2)c1 [3-phenoxybenzaldehyde] | 302 | – | –
9 | CCCCC(C#N)(Cn1cncn1)c1ccc(Cl)cc1 (stereo not shown) [myclobutanil] | 148 | – | –
10 | O=C(O)COc1nc(Cl)c(Cl)cc1Cl [triclopyr] | 76.1 | 1860 ± 190 | –
11 | AmGSTD1 (Apis mellifera) (protein) MLFSNKVIELMHSGDGGSGAEIKMPIDFYQLPGSPPCRAVALTAAALDIEMNFKQVNLMNGEHLKPEFLKINPQHTIPTIDDNGFRLWESRAIMTYLADQYGKNDTLYPKDLKKRAIVNQRLYFDMCSLYKSFMDYYYPIIFMKAVKDQAKYENIGTALSFLDKFLEGENYVAGKNMTLADLSIVSTVSTLEALDYDLSKYKNVTRWFAKIKPEIPKYEEYNNAGLKMFKELVNEKLSKK | – | – | Km (purified protein [5]): 1160 ± 90 µM; kcat (purified protein [5]): 6.7 ± 0.233 s⁻¹; Km (purified protein [6]): 819 ± 100 µM; kcat (purified protein [6]): 3.93 ± 0.2 s⁻¹; Km (purified protein [7]): 106 ± 34 µM; kcat (purified protein [7]): 0.345 ± 0.0433 s⁻¹
